One may read the EC50 as the concentration that produces a half-maximal response.

In the assay the test system is TFEB. Nature of the assay: High content TFEB-GFP nuclear translocation assay. The class given is cell-based. To be noted: Homo sapiens; mobilization of cytosolic TFEB to the nucleus; TFEB-GFP HeLa cells, 3 h at 37° C. in RPMI, ten concentrations 50 μM to 2.54 nM, 4 runs; read-out: Average EC50. On the procedure: Immunoblotting of protein extracts isolated from HeLa cells treated overnight, as indicated. Membranes were probed with antibodies for p-T202/Y204-ERK1/2, ERK1/2, p-T389-S6K, and S6K to measure ERK and mTORC1 activities. […] FLAG immunoblotting of cytosolic and nuclear fractions isolated from TFEB-3×FLAG HeLa cells cultured in amino acid-free media and subsequently stimulated as indicated for at least 3 h. Correct subcellular fractionation was verified with H3 and tubulin antibodies. […] After 3 h at 37° C. in RPMI medium containing one of each of the compounds, the cells were washed, fixed, and stained with DAPI and photographed by using confocal automated microscopy (Opera high content system, Perkin Elmer). […] Scale bars represent 30 μm. […] The EC50 for each compound was calculated using Prism software (see Materials and Methods for details). […] Antibody used were p-T389-S6K, S6K and FLAG. […] HeLa cells stably expressing Flag-3×TFEB were infected with lentiviruses encoding a Short hairpin (Sh-) RNA targeting luciferase (control) or RagC and RagD mRNAs. […] TFEB localization was detected with a FLAG antibody, whereas tubulin and H3 were used as controls for the cytosolic and nuclear fraction, respectively; levels of S6K phosphorylation were used to test RagC and RagD knockdown efficiency.
After 3 hours at 37° C. in RPMI medium cells were washed, fixed, and stained with DAPI. For the acquisition of the images, ten pictures per each well of the 384-well plate were taken by using confocal automated microscopy (Opera high content system, Perkin Elmer). A dedicated script was developed to perform the analysis of TFEB localization on the different images (Acapella software, Perkin Elmer). The script calculates the ratio value resulting from the average intensity of nuclear TFEB-GFP fluorescence divided by the average of the cytosolic intensity of TFEB-GFP fluorescence. The results were normalized using negative (RPMI medium) and positive (HBSS starvation) control samples in the same plate. The data are represented by the percentage of nuclear translocation at the different concentrations of each compound using Prism software (GraphPad software). The EC50 for each compound was calculated using non-linear regression fitting (Prism software).
In order to find additional small molecules able to induce the translocation of TFEB from the cytosol to the nucleus, the applicants developed a cell-based high content assay using stable HeLa cells overexpressing TFEB fused to the green fluorescent protein (TFEB-GFP). In the assay imaging of treated cells is acquired by an automated confocal microscope (OPERA system) and the analysis of those images with Acapella image software calculates the ratio of the average of fluorescence intensity of TFEB-GFP between the cytosol and nucleus of the cell (see Materials and methods for details). […] They tested ten concentrations for each inhibitor.
Regarding `CN1CCN(CCOc2cc(OC3CCOCC3)c3c(Nc4c(Cl)ccc5c4OCO5)ncnc3c2)CC1` [AZD0530 (Saracatinib), Saracatinib], the EC50 was 7 to 15 µM. As for `N#CC(=C(/N)Sc1ccccc1N)/C(C#N)=C(\N)Sc1ccccc1N` [drawing 34], the half-maximal effective concentration (EC50) is greater than 15 µM. On to `Cc1ccc(S(=O)(=O)Nc2nc3ccccc3nc2Nc2ccc3nsnc3c2)cc1` [XL147], for which the EC50 is less than 7 µM. With `NC1(c2ccc(-c3nc4ccn5c(=O)[nH]nc5c4cc3-c3ccccc3)cc2)CCC1` [MK-2206], the EC50 was in the range of 7 to 15 µM. Consider `CCN1CCN(Cc2ccc(-c3cc4c(N[C@H](C)c5ccccc5)ncnc4[nH]3)cc2)CC1` [AEE788], for which the concentration for a half-maximal effect (EC50) is less than 7 µM. For the molecule `CCN1CCN(C(=O)Cc2ccc(Nc3ncc(F)c(Nc4ccc(C(=O)Nc5ccccc5Cl)cc4)n3)cc2)CC1` [Aurora A inhibitor 1], the EC50 is less than 7 µM. With `CC[C@@H]1C(=O)N(C)c2cnc(Nc3ccc(C(=O)NC4CCN(C)CC4)cc3OC)nc2N1C1CCCC1` [BI2536], the EC50 was less than 7 µM. Turning to `Cc1ccc(C(=O)Nc2ccc(CN3CCN(C)CC3)c(C(F)(F)F)c2)cc1C#Cc1cnc2cccnn12` [AP24534], the half-maximal effective concentration (EC50) is less than 7 µM. Regarding `CO[C@H]1C[C@@H]2CC[C@@H](C)[C@@](O)(O2)C(=O)C(=O)N2CCCC[C@H]2C(=O)O[C@H]([C@H](C)C[C@@H]2CC[C@@H](OC(=O)C(C)(CO)CO)[C@H](OC)C2)CC(=O)[C@H](C)/C=C(\C)[C@@H](O)[C@@H](OC)C(=O)[C@H](C)C[C@H](C)/C=C/C=C/C=C/1C` [Temsirolimus], the EC50 lay in the range of 7 to 15 µM. The value for `Cc1ccc([N+](=O)[O-])cc1S(=O)(=O)N(C)/N=C/c1cnc2ccc(Br)cn12` [PIK75] was less than 7 µM. Consider `CCC1=C[C@@H]2CN(C1)Cc1c([nH]c3ccccc13)[C@@](C(=O)OC)(c1cc3c(cc1OC)N(C)[C@H]1[C@@](O)(C(=O)OC)[C@H](OC(C)=O)[C@]4(CC)C=CCN5CC[C@]31[C@@H]54)C2` [Vinorelbine], for which the EC50 was less than 7 µM. As for `Cn1cc(C2=C(c3cn(C4CCN(Cc5ccccn5)CC4)c4ccccc34)C(=O)NC2=O)c2ccccc21` [Enzastaurin], the half-maximal effective concentration (EC50) is less than 7 µM. With `C[C@@H](Oc1cc(-n2cnc3ccc(CN4CCN(C)CC4)cc32)sc1C(N)=O)c1ccccc1C(F)(F)F` [GSK461364], the EC50 was less than 7 µM. The value for `COc1cc2c(Nc3ccc(Br)cc3F)ncnc2cc1OCC1CCN(C)CC1` [Vandetanib] was less than 7 µM; that for `CC(C)c1cnn2c(NCc3ccccc3)cc(NCCCCCCN)nc12` [BS181] was less than 7 µM; that for `CNC(=O)c1ccc2c(c1)NC(=O)/C2=C(\Nc1cccc(CN(C)C)c1)c1ccccc1` [BIX 02188] was greater than 15 µM. `Oc1cccc(-c2nc(N3CCOCC3)c3oc4ncccc4c3n2)c1` [PI103]: the EC50 is less than 7 µM. Regarding `CC(C)(C)Cn1c(N)nc2ccc(-c3[nH]c(C(C)(C)C)nc3-c3ccc(F)cc3)nc21` [LY2228820], the EC50 is less than 7 µM. The value for `Cn1c(=O)n(-c2ccc(C(C)(C)C#N)cc2)c2c3cc(-c4cnc5ccccc5c4)ccc3ncc21` [NVP-BEZ235] was less than 7 µM.

Turning to `Cc1cc(Nc2cc(N3CCN(C)CC3)nc(/C=C/c3ccccc3)n2)n[nH]1` [ENMD-2076], the EC50 was less than 7 µM. Turning to `Cc1c[nH]c(-c2cnc(NCCNc3ccc(C#N)cn3)nc2-c2ccc(Cl)cc2Cl)n1` [CHIR99021], the EC50 is less than 7 µM. On to `Cc1nc(N)sc1-c1ccnc(Nc2ccc(N3CCOCC3)cc2)n1` [CYC116], for which the half-maximal effective concentration (EC50) was less than 7 µM. The value for `C=CC(=O)Nc1cccc(Oc2nc(Nc3ccc(N4CCN(C)CC4)cc3OC)ncc2Cl)c1` [WZ4002] was 7 to 15 µM.

For `Cc1cc(Nc2cc(CN3CCOCC3)c3nc(C)c(Cc4ccc(Cl)cc4F)n3n2)[nH]n1` [LY2784544], the EC50 is less than 7 µM. Regarding `COC(=O)Nc1ccc(-c2nc(N3CCOCC3)c3cnn(C4CCN(C(=O)OC)CC4)c3n2)cc1` [WYE354], the EC50 is 7 to 15 µM. Turning to `Clc1ccc(C2(c3ccc(-c4cn[nH]c4)cc3)CCNCC2)cc1` [AT7867], the EC50 was less than 7 µM. In the case of `CO[C@H]1C[C@@H]2CC[C@@H](C)[C@@](O)(O2)C(=O)C(=O)N2CCCC[C@H]2C(=O)O[C@H]([C@H](C)C[C@@H]2CC[C@@H](OP(C)(C)=O)[C@H](OC)C2)CC(=O)[C@H](C)/C=C(\C)[C@@H](O)[C@@H](OC)C(=O)[C@H](C)C[C@H](C)/C=C/C=C/C=C/1C` [Deforolimus], the EC50 was 7 to 15 µM. Consider `CN(C)C/C=C/C(=O)Nc1cc2c(Nc3ccc(F)c(Cl)c3)ncnc2cc1O[C@H]1CCOC1` [BIBW2992 (Tovok)], for which the half-maximal effective concentration (EC50) was less than 7 µM. The value for `C[C@@H](Oc1cc(-c2cnn(C3CCNCC3)c2)cnc1N)c1c(Cl)ccc(F)c1Cl` [PF-02341066] was less than 7 µM; that for `COc1cc(N2CCC(N3CCN(C)CC3)CC2)ccc1Nc1ncc(Cl)c(Nc2ccccc2S(=O)(=O)C(C)C)n1` [NVP-TAE684] was less than 7 µM. Regarding `CCS(=O)(=O)Nc1ccc2c(c1)/C(=C(/Nc1ccc(CN3CCCCC3)cc1)c1ccccc1)C(=O)N2` [Hesperadin], the concentration giving a half-maximal response (EC50) was 7 to 15 µM. With `CS(=O)(=O)CCNCc1ccc(-c2ccc3ncnc(Nc4ccc(OCc5cccc(F)c5)c(Cl)c4)c3c2)o1` [Lapatinib Ditosylate], the concentration giving a half-maximal response (EC50) was less than 7 µM.

`Nc1ncnc2c1c(-c1cccc(OCc3ccccc3)c1)cn2C1CC(CN2CCCC2)C1` (stereo in doubt) [NVP-ADW742]: the concentration for a half-maximal effect (EC50) was less than 7 µM.

With `FC(F)c1nc2ccccc2n1-c1nc(N2CCOCC2)nc(N2CCOCC2)n1` [ZSTK474], the EC50 is less than 7 µM. As for `O=C(NOC[C@H](O)CO)c1ccc(F)c(F)c1Nc1ccc(I)cc1F` [PD0325901], the figure is greater than 15 µM; as for `CCN(CC)CCNC(=O)c1c(C)[nH]c(/C=C2\C(=O)Nc3ccc(F)cc32)c1C` [Sunitinib Malate], less than 7 µM. With `CO[C@H]1C[C@@H]2CC[C@@H](C)[C@@](O)(O2)C(=O)C(=O)N2CCCC[C@H]2C(=O)O[C@H]([C@H](C)C[C@@H]2CC[C@@H](OCCO)[C@H](OC)C2)CC(=O)[C@H](C)/C=C(\C)[C@@H](O)[C@@H](OC)C(=O)[C@H](C)C[C@H](C)/C=C/C=C/C=C/1C` [Everolimus (RAD001), Everolimus], the EC50 was greater than 15 µM. Turning to `O=C1c2ccccc2-c2n[nH]c3cccc1c23` [SP600125], the 50% effective concentration (EC50) was greater than 15 µM. The value for `COc1ccc(-c2ccc3c(N4CCOCC4)nc(N4C[C@@H](C)O[C@@H](C)C4)nc3n2)cc1CO` [KU0063794] was less than 7 µM; that for `O=c1cc(-c2cccc3c2Sc2ccccc2S3)oc(N2CCOCC2)c1` [KU-55933] was less than 7 µM.

In the case of `Nc1nc(Nc2ccc(S(N)(=O)=O)cc2)nn1C(=O)c1c(F)cccc1F` [JNJ-7706621], the half-maximal effective concentration (EC50) was 7 to 15 µM. As for `COc1cc2c(Oc3ccc(NC(=O)C4(C(=O)Nc5ccc(F)cc5)CC4)cc3F)ccnc2cc1OCCCN1CCOCC1` [XL880 (GSK1363089)], the 50% effective concentration (EC50) is less than 7 µM.

On to `C=CC(=O)Nc1cc2c(Nc3ccc(F)c(Cl)c3)ncnc2cc1OCCCN1CCOCC1` [CI-1033], for which the half-maximal effective concentration (EC50) is less than 7 µM. In the case of `CCOc1cc2ncc(C#N)c(Nc3ccc(OCc4ccccn4)c(Cl)c3)c2cc1NC(=O)/C=C/CN(C)C` [Neratinib], the EC50 is greater than 15 µM.

For the molecule `CN(C)c1ccc(-c2nc3c(N4CCN(CC(=O)Nc5nccs5)CC4)c(Cl)cnc3[nH]2)cc1` [CCT129202], the 50% effective concentration (EC50) was less than 7 µM.

With `Nc1nccc(Oc2ccc(NC(=O)c3c[nH]cc(-c4ccc(F)cc4)c3=O)cc2F)c1Cl` [BMS 794833], the EC50 lay within 7 to 15 µM. Take `COc1cc2nccc(Oc3ccc(NC(=O)Nc4ccc(F)cc4F)c(F)c3)c2cc1OC` [Ki8751]: the EC50 was less than 7 µM.

In the case of `CN(C)Cc1cccc(N/C(=C2\C(=O)Nc3cc(C(=O)N(C)C)ccc32)c2ccccc2)c1` [BIX02189], the EC50 was 7 to 15 µM.

In the case of `Cc1cc(C(C)Nc2ccccc2)c2nc(N3CCOCC3)cc(=O)n2c1` (stereo not shown) [TGX 221], the EC50 is less than 7 µM.

With `O=C1NC(=O)C(Cc2ccc3nccc(-c4ccncc4)c3c2)S1` (stereo not shown) [GSK1059615], the EC50 is less than 7 µM. In the case of `COc1cc2c(Oc3ccc4[nH]c(C)cc4c3F)ncnc2cc1OCCCN1CCCC1` [Cediranib (AZD2171), Cediranib], the EC50 was less than 7 µM. As to `C[C@@H]1CN(CC(=O)Nc2ccc3c(c2)Cc2cccc(-c4cc(=O)cc(N5CCOCC5)o4)c2S3)C[C@H](C)O1` [KU-60019], the EC50 was greater than 15 µM.

The values are drawn from patent US20140038920A1, “TFEB PHOSPHORYLATION INHIBITORS AND USES THEREOF” (FONDAZIONE TELETHON, priority 2011, published 2014).
